Measurements from US9822114B2, “Tricyclic oxazolidinone antibiotic compounds” (Idorsia Pharmaceuticals Ltd, priority 2008, dated 2017).

The compounds below were run on M. catarrhalis A894 (assay: Minimal inhibitory concentration (MIC), microdilution method in cation-adjusted Mueller-Hinton Broth (CLSI M7-A7)). Conditions: Moraxella catarrhalis, strain A894.
Assay type: cell-based
Protocol: Minimal inhibitory concentrations (MICs; mg/1) were determined in cation-adjusted Mueller-Hinton Broth by a microdilution method following the description given in “Methods for Dilution Antimicrobial Susceptibility Tests for Bacteria that Grow Aerobically”, Approved standard, 7th ed., Clinical and Laboratory Standards Institute (CLSI) Document M7-A7, Wayne, Pa., USA, 2006.

| SMILES | MIC [µg/mL] |
| --- | --- |
| O=C1CSc2ccc(N3C[C@@H](CCCN(CCO)C4Cn5c(=O)ccc6ccc(F)c4c65)OC3=O)cc2N1 (mixture of isomers) [Example 93, (RS)-9-fluoro-1-((2-hydroxy-ethyl)-{3-[(R)-2-oxo-3-(3-oxo-3,4-dihydro-2H-benzo[1,4]thiazin-6-yl)-oxazolidin-5-yl]-propyl}-amino)-1,2-dihydro-pyrrolo[3,2,1-ij]quinolin-4-one] | ≤ 0.031 |
| O=C1CSc2ccc(N3C[C@@H](CCCNC4Cn5c(=O)ccc6ncc(F)c4c65)OC3=O)cc2N1 (mixture of isomers) [Example 94, (RS)-3-fluoro-4-{3-[(R)-2-oxo-3-(3-oxo-3,4-dihydro-2H-benzo[1,4]thiazin-6-yl)-oxazolidin-5-yl]-propylamino}-4,5-dihydro-pyrrolo[3,2,1-de][1,5]naphthyridin-7-one] | ≤ 0.031 |
| O=C1COc2ccc(N3C[C@@H](CCCNC4Cn5c(=O)ccc6ncc(F)c4c65)OC3=O)cc2N1 (mixture of isomers) [Example 95, (RS)-3-fluoro-4-{3-[(R)-2-oxo-3-(3-oxo-3,4-dihydro-2H-benzo[1,4]oxazin-6-yl)-oxazolidin-5-yl]-propylamino}-4,5-dihydro-pyrrolo[3,2,1-de][1,5]naphthyridin-7-one] | ≤ 0.031 |
| O=C1COc2ccc(N3C[C@H](CCCNC4Cn5c(=O)ccc6ncc(F)c4c65)OC3=O)cc2N1 (mixture of isomers) [Example 97, (RS)-3-fluoro-4-{3-[(S)-2-oxo-3-(3-oxo-3,4-dihydro-2H-benzo[1,4]oxazin-6-yl)-oxazolidin-5-yl]-propylamino}-4,5-dihydro-pyrrolo[3,2,1-de][1,5]naphthyridin-7-one] | ≤ 0.031 |
| O=C1COc2ccc(N3C[C@@H](CNCC4Cn5c(=O)ccc6ncc(F)c4c65)OC3=O)cc2N1 (mixture of isomers) [Example 98, (RS)-3-fluoro-4-({[(R)-2-oxo-3-(3-oxo-3,4-dihydro-2H-benzo[1,4]oxazin-6-yl)-oxazolidin-5-ylmethyl]-amino}-methyl)-4,5-dihydro-pyrrolo[3,2,1-de][1,5]naphthyridin-7-one] | 0.25 |
| O=C1CSc2ccc(N3C[C@H](CCNCC4Cn5c(=O)ccc6ncc(F)c4c65)OC3=O)cc2N1 (mixture of isomers) [Example 99, (RS)-3-fluoro-4-({2-[(S)-2-oxo-3-(3-oxo-3,4-dihydro-2H-benzo[1,4]thiazin-6-yl)-oxazolidin-5-yl]-ethylamino}-methyl)-4,5-dihydro-pyrrolo[3,2,1-de][1,5]naphthyridin-7-one] | ≤ 0.031 |

More lines, now with the values ahead:

| MIC [µg/mL] | SMILES |
| --- | --- |
| ≤ 0.031 | O=C1CSc2ccc(N3C[C@@H](CCCN(CCCO)C4Cn5c(=O)ccc6ccc(F)c4c65)OC3=O)cc2N1 (mixture of isomers) [Example 92, (RS)-9-fluoro-1-((3-hydroxy-propyl)-{3-[(R)-2-oxo-3-(3-oxo-3,4-dihydro-2H-benzo[1,4]thiazin-6-yl)-oxazolidin-5-yl]-propyl}-amino)-1,2-dihydro-pyrrolo[3,2,1-ij]quinolin-4-one] |
| ≤ 0.031 | O=C1CSc2ccc(N3C[C@H](CCCNC4Cn5c(=O)ccc6ncc(F)c4c65)OC3=O)cc2N1 (mixture of isomers) [Example 96, (RS)-3-fluoro-4-{3-[(S)-2-oxo-3-(3-oxo-3,4-dihydro-2H-benzo[1,4]thiazin-6-yl)-oxazolidin-5-yl]-propylamino}-4,5-dihydro-pyrrolo[3,2,1-de][1,5]naphthyridin-7-one] |
| 0.031 | O=C1CSc2ccc(N3C[C@@H](CNCC4Cn5c(=O)ccc6ncc(F)c4c65)OC3=O)cc2N1 (mixture of isomers) [Example 100, (RS)-3-fluoro-4-({[(R)-2-oxo-3-(3-oxo-3,4-dihydro-2H-benzo[1,4]thiazin-6-yl)-oxazolidin-5-ylmethyl]-amino}-methyl)-4,5-dihydro-pyrrolo[3,2,1-de][1,5]naphthyridin-7-one] |
